Data taken from US20100248255A1, “NOVEL PEPTIDES” (KYOWA HAKKO KOGYO CO., LTD, priority 2005, published 2010).
No end group written: not given here.

Key:
[1] = tested on: antiserum (rabbit, Peptide 7-KLH conjugate as antigen); experiment: Binding specificity of antiserum by competitive RIA with [125I]-labeled Peptide 1
Description: As controls, reactions that use RIA buffer instead of the antiserum to measure non-specific binding, and reactions […] that use RIA buffer instead of VGF-derived peptide solutions to measure the maximum binding level were carried out. Reactions for non-specific binding were performed in quadruplicates, and the other reactions were performed in duplicates, and for each of the reactants, the immune complex was precipitated as in the above-mentioned antibody titer measurements, and its radioactivity (cpm) was measured. The average radioactivity of non-specific binding reaction is defined as non-specific binding level N, the radioactivity value for each VGF-derived peptide addition reaction is defined as Y, and the radioactivity value of maximum binding reaction is defined as Z. The percentage ratio (B/B0) of antiserum specific binding level (B) with peptide addition to the maximum binding level (B0), was determined using the following formula.
B/B0 (%)={(Y−N)/(Z−N)}×100
Accordingly, the amount of peptide that achieves 50% B/B0, more specifically, the amount of peptide that yields 50% inhibition of the maximum binding level, was used as an indicator of the peptide binding activity to the antiserum.
The amounts of peptide/tube used for performing the measurements were 0.5, 1, 2, 4, 8, 16, 32, 64, 128, 256, 512 and 1024 fmol for Peptide 1; 1, 2, 4, 8, 16, 32, 64, 128, 256, 512 and 1024 fmol for Peptide 2; 1, 3.3, 10, 33, 100, 333, 1000, 3300, 10,000, 33,000, 100,000, 333,000 and 1,000,000 fmol for Peptide 3; and 1,000, 10,000, 100,000 and 1,000,000 fmol for Peptide 8.

[2] = tested on: cardiac cells of the apoaequorin-expressing mice; experiment: Intracellular calcium ion increase (aequorin luminescence), heart of apoaequorin-expressing mice; format: cell-based, mouse; settings: for intracellular calcium concentration in cardiac cells (RLU per second): added at 25 seconds; for luminescence in the heart: organ pieces, peptide final concentrations of 1 μmol/L and of 5 μmol/L
Description: (§1) A heart or blood vessel is collected from transgenic mice systemically expressing apoaequorin (WO02/010371) produced by introducing an apoaequorin gene expression vector into fertilized eggs. The obtained heart or blood vessel is cut finely into pieces, suspended in a medium containing coelenterazine, and then incubated to incorporate coelenterazine into the cells to form aequorin (a complex of apoaequorin and coelenterazine). Since aequorin luminesces upon binding to intracellular calcium ions, the relative luminescence level in cells before and after addition of a medium containing the peptide or a pharmaceutically acceptable salt thereof is measured in a luminometer every second over time and is used as an indicator of intracellular calcium ion concentration. Increase in the relative luminescence level due to addition of the peptide or pharmaceutically acceptable salt thereof confirms that the peptide or pharmaceutically acceptable salt thereof has the activity to increase intracellular calcium ion concentration.
(§2) Whether Peptides 1 to 5, 9 and 10 synthesized in Example 2 have the activity of increasing intracellular calcium ion concentration was investigated using the organs of transgenic mice introduced with the apoaequorin gene and systemically expressing apoaequorin (hereinafter referred to as apoaequorin-expressing mice). In apoaequorin-expressing mouse cells, light is emitted when apoaequorin binds to a calcium ion in the presence of the luminescent substrate coelenterazine and thus the intracellular calcium ion concentration can be monitored. Patent Document (WO02/010371) discloses the method for producing apoaequorin-expressing mice, method for evaluating biologically active substances that use biological samples derived from the mice, and experimental results of evaluating biologically active peptides using the mouse organs as shown below. […] Therefore, apoaequorin-expressing mice can be used in the evaluation of the physiological activities of novel peptides.
(§3) Apoaequorin-expressing mice were produced according to the method disclosed in Reference Example 4 of Patent Document (WO02/010371). The apoaequorin-expressing mice were sacrificed, individual organs including thymus, spleen, bone, blood vessel, heart, kidney, adrenal gland, pancreas, pituitary gland, and uterus, were removed; and each of the organs was cut into small cubes of approximately 1 to 2 mm^3. Next, in 5-mL tubes (Rohren-Tubes; manufactured by Sarstedt, No. 55.476), three portions of each of the prepared organs were added to 50 μL of a 10 μmol/L solution of coelenterazine (manufactured by Molecular Probes) dissolved in RPMI 1640 medium, and these were cultured at 37° C. for three hours. After culturing, RPMI 1640 medium was added, and then Peptides 1 to 5, 9 and 10 dissolved in RPMI 1640 medium were added 25 seconds after the addition of RPMI 1640 until each peptide had final concentrations of 1 μmol/L and of 5 μmol/L, and the relative luminescence levels were measured every second immediately after the addition of RPMI 1640 medium by using a luminometer (AutoLumat LB953, manufactured by Berthold).

thymus = experiment: Aequorin luminescence, thymus of apoaequorin-expressing mice; format: cell-based, mouse; settings: organ pieces, peptide final concentrations of 1 μmol/L and of 5 μmol/L
Text: as §2, §3

pituitary gland = experiment: Aequorin luminescence, pituitary gland of apoaequorin-expressing mice; format: cell-based, mouse; settings: organ pieces, peptide final concentrations of 1 μmol/L and of 5 μmol/L
Text: as §2, §3

uterus = experiment: Aequorin luminescence, uterus of apoaequorin-expressing mice; format: cell-based, mouse; settings: organ pieces, peptide final concentrations of 1 μmol/L and of 5 μmol/L
Text: as §2, §3

[3] = tested on: vascular cells of the apoaequorin-expressing mice; experiment: Intracellular calcium ion increase (aequorin luminescence), blood vessel of apoaequorin-expressing mice; format: cell-based, mouse; settings: for intracellular calcium concentration in vascular cells (RLU per second): 5 μmol/L of peptide, added at 25 seconds; for luminescence in the blood vessel: organ pieces, peptide final concentrations of 1 μmol/L and of 5 μmol/L
Description: as §1, §2, §3

spleen = experiment: Aequorin luminescence, spleen of apoaequorin-expressing mice; format: cell-based, mouse; settings: organ pieces, peptide final concentrations of 1 μmol/L and of 5 μmol/L
Text: as §2, §3

[4] = direct administration to the paraventricular nucleus of the hypothalamus of male rats; Non-Patent Document 6; cited from earlier work
[5] = molecular target: antiserum showing an antibody titer of 9×10^5 (rabbit antiserum raised against the conjugate between Peptide 7 and KLH); experiment: competitive RIA against [^125I]-labeled Peptide 1
[6] = non-VGF peptides at 1, 10, and 100 pmol
[7] = VGF-derived peptides, sequentially diluted

## NC(=O)CC[C@@H]1NC(=O)[C@H](Cc2ccccc2)NC(=O)[C@H](Cc2ccc(O)cc2)NC(=O)[C@@H](N)CSSC[C@@H](C(=O)N2CCC[C@H]2C(=O)N[C@@H](CCCN=C(N)N)C(=O)NCC(N)=O)NC(=O)[C@H](CC(N)=O)NC1=O [vasopressin]
[1]; [6]
  inhibition of antiserum binding to [125I]-labeled Peptide 1: none of the peptides showed inhibition

## HYHHALPPSRHYP [Peptide 1]
[2]; 1 μmol/L of peptide
  intracellular calcium concentration in cardiac cells (RLU per second): increase of intracellular calcium concentration
[2]
  luminescence in the heart: luminescence was observed
thymus
  luminescence in the thymus: luminescence was observed
Pituitary gland
  luminescence in the pituitary gland: luminescence was observed
uterus
  luminescence in the uterus: luminescence was observed
[1]; [7]
  inhibition of antiserum binding to [125I]-labeled Peptide 1: same degree of quantity-dependent inhibition
[1]; antiserum diluted 9×10^5 folds, 4° C. for 40 hours
  amount of peptide for 50% inhibition of the maximum binding level (50% B/B0): 7.5 fmol

## Leu-enkephalin
[1]; [6]
  inhibition of antiserum binding to [125I]-labeled Peptide 1: none of the peptides showed inhibition

## Met-enkephalin-Arg-Gly-Leu (YGGFMRGL) [non-VGF peptide]
[1]; [6]
  inhibition of antiserum binding to [125I]-labeled Peptide 1: none of the peptides showed inhibition

## PAMP-20
[1]; [6]
  inhibition of antiserum binding to [125I]-labeled Peptide 1: none of the peptides showed inhibition

## PHI-27 (HADGVFTSDFSKLLGQLSAKKYLESLM; ends and bridges not checked; UniProt P01282 81-107, looked up) [non-VGF peptide]
[1]; [6]
  inhibition of antiserum binding to [125I]-labeled Peptide 1: none of the peptides showed inhibition

## Peptide 4: positions 586 to 615 of human VGF; same sequence as peptide V derived from bovine VGF (AQEEAEAEERRLQEQEELENYIEHVLLRRP; synthetic Peptide 4, positions 586-615 of human VGF, C-terminal VGF-derived peptide)
[3]
  intracellular calcium concentration in vascular cells (RLU per second): increase of intracellular calcium concentration
  luminescence in the blood vessel: luminescence was observed
thymus
  luminescence in the thymus: luminescence was observed
spleen
  luminescence in the spleen: luminescence was observed
Pituitary gland
  luminescence in the pituitary gland: luminescence was observed

## Peptide 8: positions 606 to 615 of the human VGF amino acid sequence (YIEHVLLRRP; synthetic Peptide 8, positions 606-615 of human VGF, C-terminal VGF-derived peptide)
[1]; [7]
  inhibition of antiserum binding to [125I]-labeled Peptide 1: did not show any inhibition

## Peptide 9: positions 485 to 503 of the amino acid sequence of human VGF (NAPPEPVPPPRAAPAPTHV; synthetic Peptide 9, positions 485-503 of human VGF, C-terminal VGF-derived peptide)
[3]
  intracellular calcium concentration in vascular cells (RLU per second): increase of intracellular calcium concentration
  luminescence in the blood vessel: luminescence was observed

## Peptide 10: positions 533 to 552 of the amino acid sequence of human VGF (EEDEVYPPGPYHPFPNYIRP; synthetic Peptide 10, positions 533-552 of human VGF, C-terminal VGF-derived peptide)
[2]; 1 μmol/L of peptide
  intracellular calcium concentration in cardiac cells (RLU per second): increase of intracellular calcium concentration
[2]
  luminescence in the heart: luminescence was observed
[3]
  intracellular calcium concentration in vascular cells (RLU per second): increase in the intracellular calcium concentration
  luminescence in the blood vessel: luminescence was observed

## adrenomedulin
[1]; [6]
  inhibition of antiserum binding to [125I]-labeled Peptide 1: none of the peptides showed inhibition

## calcitonin
[1]; [6]
  inhibition of antiserum binding to [125I]-labeled Peptide 1: none of the peptides showed inhibition

## calcitonin receptor-stimulating peptide
[1]; [6]
  inhibition of antiserum binding to [125I]-labeled Peptide 1: none of the peptides showed inhibition

## corticotropin-releasing factor
[1]; [6]
  inhibition of antiserum binding to [125I]-labeled Peptide 1: none of the peptides showed inhibition

## neuromedin U-8
[1]; [6]
  inhibition of antiserum binding to [125I]-labeled Peptide 1: none of the peptides showed inhibition

## rat VGF (556-576): partial peptide of rat VGF, positions 556-576
[4]
  erection inducing activity: this activity was not observed

## rat VGF (577-617): partial peptide of rat VGF (556-617), positions 577-617 (HHPDLEAQARRAQEEADAEERRLQEQEELENYIEHVLLHRP; UniProt P20156 577-617, looked up, fragment)
[4]
  erection inducing activity: showed an erection inducing activity

## rat VGF (588-617): partial peptide of rat VGF (556-617), positions 588-617 (AQEEADAEERRLQEQEELENYIEHVLLHRP; UniProt P20156 588-617, looked up, fragment)
[4]
  erection inducing activity: showed an erection inducing activity

## rat VGF (599-617): partial peptide of rat VGF (556-617), positions 599-617 (LQEQEELENYIEHVLLHRP; UniProt P20156 599-617, looked up, fragment)
[4]
  erection inducing activity: showed an erection inducing activity

## substance K
[1]; [6]
  inhibition of antiserum binding to [125I]-labeled Peptide 1: none of the peptides showed inhibition

B1: Peptide 3 (SEQ ID NO: 2) (peptide)
peptide: H-TLQPPSALRRRHYHHALPPSRHYPGREAQA-OH
[5]
  fold amount required for the same degree of inhibition as Peptides 1 and 2: 10000 fold

B2: Peptide 5: positions 554 to 615 in the amino acid sequence of human VGF (peptide)
chain: TLQPPSALRRRHYHHALPPSRHYPGREAQARRAQEEAEAEERRLQEQEELENYIEHVLLRRP
modifications: synthetic Peptide 5, positions 554-615 of human VGF, C-terminal VGF-derived peptide
[2]; 5 μmol/L of peptide
  intracellular calcium concentration in cardiac cells (RLU per second): increase of intracellular calcium concentration
[2]
  luminescence in the heart: luminescence was observed
